≈ marks a conversion by molar mass, not a printed value.
Tests used:
Format in all cases: physicochemical
[1] = X-ray powder diffraction (XRPD); conditions: Table 27A
Protocol: Most XRPD patterns were collected with a PANalytical X′Pert PRO MPD diffractometer using an incident beam of Cu Kα radiation produced using a long, fine-focus source and a nickel filter. The diffractometer was configured using the symmetric Bragg-Brentano geometry. Prior to the analysis, a silicon specimen (NIST SRM 640e) was analyzed to verify the observed position of the Si 111 peak is consistent with the NIST-certified position. A specimen of the sample was prepared as a thin, circular layer centered on a silicon zero-background substrate. Antiscatter slits (SS) were used to minimize the background generated by air. Soller slits for the incident and diffracted beams were used to minimize broadening from axial divergence. Diffraction patterns were collected using a scanning position-sensitive detector (X′Celerator) located 240 mm from the sample and Data Collector software v. 2.2b.
A few XRPD patterns were collected with a PANalytical X′Pert PRO MPD diffractometer using an incident beam of Cu radiation produced using an Optix long, fine-focus source. […] Prior to the analysis, a silicon specimen (NIST SRM 640e) was analyzed to verify the observed position of the Si 111 peak is consistent with the NIST-certified position. A specimen of the sample was sandwiched between 3-μm-thick films and analyzed in transmission geometry. […]

[2] = Thermogravimetric/differential thermal analysis (TG/DTA)
Protocol: Approximately, 5 mg of material was weighed into an open aluminium pan and loaded into a simultaneous thermogravimetric/differential thermal analyzer (TG/DTA) and held at room temperature. The sample was then heated at a rate of 10° C./min from 20° C. to 400° C. during which time the change in sample weight occurred was recorded along with any differential thermal events (DTA). Nitrogen was used as the purge gas at a flow rate of 300 cm^3/min.

[3] = Storage stability of Compound 3 forms (80° C., 40° C./75% RH, 25° C./60% RH, ambient); conditions: for 1 week stability: 40° C./75% RH XRPD (uncapped): WC = weakly crystalline
Protocol: No changes by XRPD or HPLC purity were observed when the material was stored at 40° C./75% RH, 80° C. or under ambient conditions.

[4] = Process for the formation of Form J: XRPD result after each step (Table 22)
Protocol: A polymorph study was completed for Form J. The production of Form J was completed by temperature cycling amorphous Compound 3 in acetronitrile (Form B) with drying the material under ambient conditions for about 24 hours.

[5] = Polymorph study: evaporation
Protocol: Saturated solutions of Compound 3 produced from temperature cycling experiments were evaporated under ambient conditions. After approximately 4 days, observations were made, and solids recovered were analyzed by XRPD (Table 21).

[6] = Solvent experiments (solubility, Example 3)
[7] = Polymorph study: temperature cycling
Protocol: Approximately 960 mg of Compound 3 Form A was weighed into a 20 mL glass vial and dissolved using 12 mL 1,4-dioxane. 0.5 mL of the solution was then dispensed into twenty-four 1.5 mL HPLC glass vials (approx. 40 mg per vial). The Compound 3 Form A solutions were then frozen (at −50° C.) and dried by lyophilization using a Lablyo mini freeze drier. Post-lyophilization, a sub-sample was taken and analyzed by XRPD. Material was successfully rendered amorphous by lyophilization.
An appropriate volume of solvent (solvent systems are detailed in Table 17) was added to lyophilized solids. The samples were temperature cycled between ambient and 40° C. (4 hour cycles) for around 72 hours. Observations were made after 72 hours temperature cycling. Further solvent was added to the samples to produce a mobile slurry and slurries were agitated at 40° C. for approximately 18 additional hours. A sub-sample of solid (where applicable) was analyzed by XRPD. Samples were heated using a heat gun to aid dissolution to ensure saturated solutions were produced. Saturated solutions were syringe filtered to remove any potential seed material (as a precaution) and divided between three different crystallization conditions: cooling, evaporation, and anti-solvent addition (volumes of saturated solutions per condition can be found in Table 17).

[8] = 40% Ethanol / 60% Water (% v/v) calc. aw = 0.7
[9] = 50% Acetonitrile / 50% Water (% v/v) calc. aw = 0.9
[10] = 50% Ethanol / 50% Heptane (% v/v)
[11] = 70% 2-Propanol / 30% Water (% v/v) aw = 0.8
[12] = 95% Methanol / 5% Water (% v/v) calc. aw = 0.2

Compound: CC(=O)c1nn(CC(=O)N2[C@H](C(=O)Nc3nc(Br)ccc3C)C[C@@]3(C)C[C@@H]23)c2ccc(-c3cnc(C)nc3)cc12 [Form B]
- XRPD [1]: Form B
- Onset Temp: Melting ([2]; Table 22B): Melting 179.8 °C
- TG/DTA: Melting ([2]; Table 27A): Melting 178.4 °C
- 1 week stability: 40° C./75% RH HPLC (uncapped) ([3]; 1 week): 99.8% (by % (by relative area)
- 1 week stability: 80° C. HPLC (capped) ([3]; 1 week): 99.9% (by % (by relative area)
- 1 week stability: 80° C. XRPD (capped) ([3]; 1 week): Form B
- 1 week stability: Ambient conditions HPLC (capped) ([3]; 1 week): 99.8% (by % (by relative area)
- 1 week stability: Ambient conditions XRPD (capped) ([3]; 1 week): Form B
- 1 week stability: 40° C./75% RH XRPD (uncapped) ([3]; 1 week): Form B
- Stability: changes by XRPD or HPLC purity ([3]; stored at 40° C./75% RH, 80° C. or under ambient conditions): No changes

Compound: CC(=O)c1nn(CC(=O)N2[C@H](C(=O)Nc3nc(Br)ccc3C)C[C@@]3(C)C[C@@H]23)c2ccc(-c3cnc(C)nc3)cc12 [Compound 3, (1R,3S,5R)-2-(2-(3-acetyl-5-(2-methylpyrimidin-5-yl)-1H-indazol-1-yl)acetyl)-N-(6-bromo-3-methylpyridin-2-yl)-5-methyl-2-azabicyclo[3.1.0]hexane-3-carboxamide]
- XRPD result ([4]; Step 1: Lyophilization): Amorphous
- XRPD result ([4]; Step 5: Re-slurry in 5 mL acetonitrile): Form J
- XRPD result ([4]; Step 8: Re-slurry in 1.5 mL acetonitrile 18 hours): Form J
- XRPD result ([4]; Step 11: Re-slurry 4 ml acetonitrile 18 hours): Form J
- XRPD result ([4]; Step 12: Air drying 2, 5 and 24 hours): Form J
- XRPD result ([4]; Step 13: After 5 days storage under ambient conditions): Amorphous
- XRPD result ([4]; Step 14: Re-slurry 4 ml acetonitrile 18 hours): Form J
- XRPD result ([4]; Step 15: Isolation using Buchner funnel (10-15 seconds on filter bed)): Amorphous
- XRPD result ([4]; Step 16: Re-slurry 4 ml acetonitrile 4 hours): Form J
- XRPD result ([4]; Step 17: Isolation using centrifuge filtration): Form J
- XRPD result ([4]; Step 18: Ambient drying 18 hours): Form J
- Crystallization technique: Evaporations ([5]; 1-Butanol): Amorphous
- Crystallization technique: Evaporations ([5]; 2-Methyl Tetrahydrofuran, WC = weakly crystalline): Form A (WC)
- Crystallization technique: Evaporations ([5]; 2-Propanol): Amorphous
- Crystallization technique: Evaporations [5, 8]: Amorphous
- Crystallization technique: Evaporations ([5]; 50% 2-Propanol / 50% Heptane (% v/v)): Amorphous
- Crystallization technique: Evaporations [5, 9]: Amorphous
- Crystallization technique: Evaporations [5, 10]: Amorphous
- Crystallization technique: Evaporations [5, 11]: Amorphous
- Crystallization technique: Evaporations ([5]; 95% 2-Propanol / 5% Heptane (% v/v), WC = weakly crystalline): Form A (WC)
- Crystallization technique: Evaporations ([5]; 95% Heptane / 5% 2-Propanol (% v/v)): Amorphous
- Crystallization technique: Evaporations [5, 12]: Amorphous
- Crystallization technique: Evaporations ([5]; Acetone, WC = weakly crystalline): Form A (WC)
- Crystallization technique: Evaporations ([5]; Acetonitrile): Amorphous
- Crystallization technique: Evaporations ([5]; Ethanol, WC = weakly crystalline): Form A (WC)
- Crystallization technique: Evaporations ([5]; Ethyl Acetate (dry)): Amorphous
- Crystallization technique: Evaporations ([5]; Methanol): Amorphous
- Crystallization technique: Evaporations ([5]; Methylethyl Ketone): Amorphous
- Crystallization technique: Evaporations ([5]; Methylisobutyl Ketone): Amorphous
- Crystallization technique: Evaporations ([5]; Toluene): Amorphous
- Crystallization technique: Evaporations ([5]; n-Heptane): Amorphous
- Crystallization technique: Evaporations ([5]; tert-Butylmethyl Ether, WC = weakly crystalline): WC (Pattern E)
- solubility ([6]; DMSO, organic solvent or mixture): 104000 µg/mL (≈ 173 mM)
- solubility ([6]; UPLC Water): 1040 µg/mL (≈ 1.73 mM)
- solubility ([6]; acetone, organic solvent or mixture): 34300 µg/mL (≈ 56.9 mM)
- solubility ([6]; ethanol, organic solvent or mixture): 8380 µg/mL (≈ 13.9 mM)
- solubility ([6]; heptane, organic solvent or mixture): 865 µg/mL (≈ 1.44 mM)
- Crystallization technique: Maturation ([7]; 1,4-Dioxane): Clear solution
- Crystallization technique: Maturation ([7]; 1-Butanol): Form A
- Crystallization technique: Maturation ([7]; 2-Methyl Tetrahydrofuran): Form A
- Crystallization technique: Maturation ([7]; 2-Propanol): Form A
- Crystallization technique: Maturation [7, 8]: Pattern N
- Crystallization technique: Maturation ([7]; 50% 2-Propanol / 50% Heptane (% v/v), WC = weakly crystalline): Form A (WC)
- Crystallization technique: Maturation [7, 9]: Clear solution
- Crystallization technique: Maturation [7, 10]: Amorphous
- Crystallization technique: Maturation ([7]; 70% 2-Propanol / 30% Heptane (% v/v), WC = weakly crystalline): Form B (WC)
- Crystallization technique: Maturation [7, 11]: Form A
- Crystallization technique: Maturation ([7]; 95% 2-Propanol / 5% Heptane (% v/v)): Form A
- Crystallization technique: Maturation ([7]; 95% Heptane / 5% 2-Propanol (% v/v), WC = weakly crystalline): Form A (WC)
- Crystallization technique: Maturation [7, 12]: Amorphous
- Crystallization technique: Maturation ([7]; Acetone): Form B
- Crystallization technique: Maturation ([7]; Acetonitrile): Form J
- Crystallization technique: Maturation ([7]; Ethanol): Amorphous
- Crystallization technique: Maturation ([7]; Ethyl Acetate (dry)): Amorphous
- Crystallization technique: Maturation ([7]; Methanol): Pattern O
- Crystallization technique: Maturation ([7]; Methylethyl Ketone): Form A
- Crystallization technique: Maturation ([7]; Methylisobutyl Ketone, WC = weakly crystalline): Form A (WC)
- Crystallization technique: Maturation ([7]; Tetrahydrofuran): Clear solution
- Crystallization technique: Maturation ([7]; Toluene): Amorphous
- Crystallization technique: Maturation ([7]; n-Heptane): Amorphous
- Crystallization technique: Maturation ([7]; tert-Butylmethyl Ether): Amorphous

Compound: CC(=O)c1nn(CC(=O)N2[C@H](C(=O)Nc3nc(Br)ccc3C)C[C@@]3(C)C[C@@H]23)c2ccc(-c3cnc(C)nc3)cc12 [Compound 3 Form A]
- Onset Temp: Melting ([2]; Table 22B): 139.4, melting ° C.
- Onset Temp: decomposition ([2]; Table 22B): 209.0 °C
- Onset Temp: melting (second event) ([2]; Table 22B): 153.9, ° C.
- TG/DTA: Melting ([2]; Table 27A): Melting 139.4 °C
- TG/DTA: decomposition ([2]; Table 27A): decomposition 209 °C
- TG/DTA: melting (second event) ([2]; Table 27A): melting 153.9° C.,
- Mass loss within the TG trace ([2]; up to 250° C.): 0.8%
- 1 week stability: 40° C./75% RH HPLC (uncapped) ([3]; 1 week): 99.7% (by % (by relative area)
- 1 week stability: 80° C. HPLC (capped) ([3]; 1 week): 99.7% (by % (by relative area)
- 1 week stability: 80° C. XRPD (capped) ([3]; 1 week): Form A
- 1 week stability: 40° C./75% RH XRPD (uncapped) ([3]; 1 week): WC Form A
- Stability: form by XRPD after storage ([3]; 25° C./60% RH, capped vial): Form A
- Stability: form by XRPD after storage ([3]; 40° C./75% RH (uncapped)): predominantly Form A
- Stability: purity change after storage ([3]; 40° C./75% RH (uncapped)): no purity change
- Stability: form by XRPD after storage (repeat study) ([3]; 40° C./75% RH, capped and uncapped vials): weakly crystalline (WC) Form A
- Stability: purity by HPLC (relative area) ([3]; 80° C.): no reduction in purity
